Laboratory results published in publication PMC9064041 (Journal of medicinal chemistry, 2020).
Converted amounts (≈) assume the structure as drawn.

System: C. difficile ATCC BAA 1801
Assay: MIC, broth microdilution, initial screening
Format: cell-based, Clostridioides difficile
Details: for MIC: C. difficile ATCC BAA 1801, anaerobic, 48 hours
[1] = Clostridioides difficile, BAA1801, 48 h

Structure (SMILES)	MIC [1] [µg/mL]	MIC [µg/mL]	activity against C. difficile ATCC BAA 1801 in words
O=C(Nc1nnc(-c2cccc(F)c2)o1)c1ccc(SC(F)(F)F)cc1 [compound 4, N-(5-(3-Fluorophenyl)-1,3,4-oxadiazol-2-yl)-4-((trifluoromethyl)thio)benzamide]	0.03 (≈ 0.0783 µM)		
O=C(Nc1nnc(-c2cccc(Cl)c2)o1)c1ccc(SC(F)(F)F)cc1 [compound 5, N-(5-(3-Chlorophenyl)-1,3,4-oxadiazol-2-yl)-4-((trifluoromethyl)thio)benzamide]	0.03 (≈ 0.075 µM)		
O=C(Nc1nnc(-c2cccc(C(F)(F)F)c2)o1)c1ccc(SC(F)(F)F)cc1 [compound 7, N-(5-(3-Trifluoromethylphenyl)-1,3,4-oxadiazol-2-yl)-4-((trifluoromethyl)thio)benzamide]	0.015 (≈ 0.0346 µM)		
O=C(Nc1nnc(-c2ccc(F)cc2)o1)c1ccc(SC(F)(F)F)cc1 [compound 8, N-(5-(4-Fluorophenyl)-1,3,4-oxadiazol-2-yl)-4-((trifluoromethyl)thio)benzamide]	4 (≈ 10.4 µM)		
O=C(Nc1nnc(-c2ccc(Cl)cc2)o1)c1ccc(SC(F)(F)F)cc1 [compound 9, N-(5-(4-Chlorophenyl)-1,3,4-oxadiazol-2-yl)-4-((trifluoromethyl)thio)benzamide]	2 (≈ 5 µM)		
COc1ccc(-c2nnc(NC(=O)c3ccc(SC(F)(F)F)cc3)o2)cc1 [compound 11, N-(5-(4-Methoxyphenyl)-1,3,4-oxadiazol-2-yl)-4-((trifluoromethyl)thio)benzamide]	4 (≈ 10.1 µM)		only moderate to no actvity
O=C(Nc1nnc(-c2ccc(Cl)cc2Cl)o1)c1ccc(SC(F)(F)F)cc1 [compound 14, N-(5-(2,4-Dichlorophenyl)-1,3,4-oxadiazol-2-yl)-4-((trifluoromethyl)thio)benzamide]	0.06 (≈ 0.138 µM)	0.03 (≈ 0.0691 µM)	

More lines, main results first:

MIC [1] [µg/mL]	MIC [µg/mL]	Structure (SMILES)	activity against C. difficile ATCC BAA 1801 in words
4 (≈ 10.1 µM)		COc1cccc(-c2nnc(NC(=O)c3ccc(SC(F)(F)F)cc3)o2)c1 [compound 6, N-(5-(3-Methoxyphenyl)-1,3,4-oxadiazol-2-yl)-4-((trifluoromethyl)thio)benzamide]	only moderate to no actvity
0.125 (≈ 0.288 µM)		O=C(Nc1nnc(-c2ccc(C(F)(F)F)cc2)o1)c1ccc(SC(F)(F)F)cc1 [compound 10, N-(5-(4-Trifluoromethylphenyl)-1,3,4-oxadiazol-2-yl)-4-((trifluoromethyl)thio)benzamide]	
128 (≈ 314 µM)		CC(C)c1ccc(-c2nnc(NC(=O)c3ccc(SC(F)(F)F)cc3)o2)cc1 [compound 13, N-(5-(4-Isopropylphenyl)-1,3,4-oxadiazol-2-yl)-4-((trifluoromethyl)thio)benzamide]	only moderate to no actvity
2 (≈ 4.65 µM)		COc1ccc(Cl)cc1-c1nnc(NC(=O)c2ccc(SC(F)(F)F)cc2)o1 [compound 16, N-(5-(5-Chloro-2-methoxyphenyl)-1,3,4-oxadiazol-2-yl)-4-((trifluoromethyl)thio)benzamide]	
8 (≈ 21.8 µM)		O=C(Nc1nnc(-c2ccccn2)o1)c1ccc(SC(F)(F)F)cc1 [compound 17, N-(5-(Pyridin-2-yl)-1,3,4-oxadiazol-2-yl)-4-((trifluoromethyl)thio)benzamide]	only moderate activity
